Data from PubChem BioAssay (NCI).
Values joined by “and” are separate entries in the source; they are usually repeats but may differ in a detail not shown here. Equal values may be shown once.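 A five-concentration, 48-hour dose response in 96-well plates underlies each endpoint, interpolated linearly between surrounding concentrations. Abbreviation: GI50, concentration required for 50% inhibition of growth. Definition used: TGI = concentration required for complete inhibition of growth.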

Legend:
Test in all cases: growth of human tumour cells (NCI), 48 h
SNB-75 CNS = tested on: SNB-75 CNS
LOX IMVI melanoma = tested on: LOX IMVI melanoma
SF-268 CNS = tested on: SF-268 CNS
A498 renal = tested on: A498 renal
PC-3 prostate = tested on: PC-3 prostate
HL-60(TB) leukemia = tested on: HL-60(TB) leukemia
OVCAR-8 ovarian = tested on: OVCAR-8 ovarian
M14 melanoma = tested on: M14 melanoma
TK-10 renal = tested on: TK-10 renal
NCI-H226 lung = tested on: NCI-H226 lung

| Compound | GI50 (SNB-75 CNS) | TGI (SNB-75 CNS) | GI50 (LOX IMVI melanoma) | TGI (LOX IMVI melanoma) | GI50 (SF-268 CNS) | TGI (SF-268 CNS) | GI50 (A498 renal) | TGI (A498 renal) | GI50 (PC-3 prostate) | TGI (PC-3 prostate) | GI50 (HL-60(TB) leukemia) | TGI (HL-60(TB) leukemia) | GI50 (OVCAR-8 ovarian) | TGI (OVCAR-8 ovarian) | TGI (M14 melanoma) | GI50 (TK-10 renal) | TGI (TK-10 renal) | TGI (NCI-H226 lung) | GI50 (M14 melanoma) | GI50 (NCI-H226 lung) |
| --- | --- | --- | --- | --- | --- | --- | --- | --- | --- | --- | --- | --- | --- | --- | --- | --- | --- | --- | --- | --- |
| CC(/C=N/N=C(N)N)=N\N=C(N)N | 28.3 µM | 187 µM | 29.9 µM | 202 µM | 23.1 µM | 92.4 µM | > 77.9 µM | 1890 µM | 40.3 µM | 1300 µM | 69.1 µM | 578 µM | 11.6 µM | > 76 µM and 378 µM | 425 µM | 32.3 µM | 813 µM | 459 µM | – | – |
| CCCN1CCC=C(c2ccc(Nc3nc(Nc4ccccc4C(N)=O)c4cc[nH]c4n3)c(C)c2)C1 | > 25 µM | > 25 µM | 1.77 µM | > 25 µM | > 25 µM | > 25 µM | 11.1 µM | > 25 µM | > 23.4 µM | > 25 µM | 0.387 µM | 6.84 µM | 10.1 µM | > 25 µM | > 25 µM | 4.61 µM | 24.4 µM | > 25 µM | 4.77 µM | > 17.7 µM |
| COc1cc(Cn2c(-c3ccccc3)cc3c2-c2oncc2CC3)cc(OC)c1 | 0.201 µM | 20.1 µM | 0.757 µM | > 100 µM | 0.876 µM | > 100 µM | 0.153 µM | 0.75 µM | 0.677 µM | > 100 µM | 0.264 µM | 2.73 µM | 0.592 µM | > 100 µM | – | 2.44 µM | > 100 µM | > 100 µM | 0.299 µM | 0.93 µM |
| N#C/C(=C\c1ccc2[nH]ccc2c1)C(=O)c1ccc(O)c(O)c1 | – | > 100 µM | – | > 100 µM | – | > 100 µM | – | > 100 µM | – | > 100 µM | – | > 95.1 µM | – | > 100 µM | > 100 µM | – | > 100 µM | > 100 µM | – | – |
| NS(=O)(=O)c1ccc(NC(=O)c2cccc(NC3=C(Cl)C(=O)N(Cc4ccccc4)C3=O)c2)cc1 | 19.4 µM | 45.3 µM | 3.54 µM | 16.1 µM | 11.7 µM | 32.4 µM | 9.25 µM | 23.7 µM | 6.57 µM | 29 µM | 2.02 µM | 6.01 µM | 12.3 µM | 41.8 µM | 38.7 µM | 15.2 µM | 31.4 µM | 46.2 µM | 15.8 µM | 8.33 µM |
| CN(C(=O)CNC(=O)/C=C/c1cccc(Cl)c1)C1CCS(=O)(=O)CC1 | 3.02 µM | > 100 µM | 0.7 µM | > 100 µM | 65.1 µM | > 100 µM | 0.421 µM | > 100 µM | > 100 µM | > 100 µM | 2.07 µM | > 100 µM | > 100 µM | > 100 µM | > 100 µM | 2.27 µM | > 100 µM | > 100 µM | 1.48 µM | 1.02 µM |
| Nc1nc(N)c2c(n1)NC(c1sc(Cl)nc1Cl)CC(c1ccc3c(c1)OCO3)=N2 (stereo not given) | 1.39 µM | 7.55 µM | 7.02 µM | 25.5 µM | 9.84 µM | 30.2 µM | 2.3 µM | 12 µM | 5.15 µM | 32.4 µM | 3.61 µM | 13.3 µM | 4.86 µM | 46.9 µM | 13.7 µM | 15 µM | 44.2 µM | 55.7 µM | 2.01 µM | 17.7 µM |
| Oc1ccc(Cl)cc1/C=N\NC(=S)N/N=C/c1cc(Cl)ccc1O | 6.35 µM | > 100 µM | 1.65 µM | > 100 µM | 1.72 µM | > 100 µM | 2.36 µM | 11.5 µM | 3.13 µM | > 100 µM | 1.37 µM | 4.23 µM | 1.92 µM | 17.7 µM | – | 2.68 µM | 34.5 µM | 14.1 µM | – | 2.34 µM |
| CC1=C(N2CC2)C(=O)c2ccccc2C1=O | – | 2.32 µM | – | 4.98 µM | – | 5.14 µM | – | – | – | 3.87 µM | – | 17.1 µM | – | 2.82 µM | 5.03 µM | – | 6.48 µM | 6.21 µM | – | – |
| Nc1ccn(C2OC(C(OC3OC(CO)C(O)C(N)C3O)C(O)C(O)C(O)C(O)CO)C(N)C(O)C2O)c(=O)n1 (stereo not given) | – | – | – | > 100 µM | – | 68.6 µM | – | > 100 µM | – | > 100 µM | – | > 100 µM | – | > 100 µM | > 100 µM | – | > 100 µM | – | – | – |
| O=C(NOCCO)c1cc(CN2OCCCC2=O)c(F)c(F)c1Nc1ccc(I)cc1F | 16.4 µM and > 3.83 µM | > 100 µM | 0.112 µM and 0.164 µM | 12.2 µM and > 10 µM | 22.6 µM and > 10 µM | > 100 µM | < 0.01 µM and 0.00948 µM | 0.0355 µM and 0.115 µM | 31.7 µM and > 10 µM | > 84.3 µM | < 0.01 µM and 0.00194 µM | > 57 µM | 12.6 µM and > 7.77 µM | > 100 µM | 0.0237 µM | – | > 100 µM | > 100 µM | < 0.01 µM and 0.00226 µM | 1.89 µM and 9.97 µM |
| COc1ccc(C(=O)c2cc3c(N)c(C(=O)Nc4cccc(OC)c4)sc3nc2C)cc1 | 0.541 µM | > 100 µM | 0.676 µM | > 100 µM | 1.75 µM | > 100 µM | 0.393 µM | – | 0.439 µM | > 100 µM | 0.311 µM | 1.52 µM | 1.75 µM | > 100 µM | > 100 µM | > 100 µM | > 100 µM | > 100 µM | 0.341 µM | 2.99 µM |
| Nc1c(C(=O)Nc2cccc3ccccc23)sc2nc3c(cc12)C(=O)CCC3 | 0.145 µM | 12.2 µM | 0.554 µM | > 100 µM | 0.587 µM | > 65.6 µM | 0.0463 µM | 1.55 µM | 0.295 µM | > 48.5 µM | 0.246 µM | 0.804 µM | 0.506 µM | 32.1 µM | > 100 µM | 12.9 µM | > 100 µM | > 63.6 µM | 0.24 µM | 1.16 µM |
| Cc1cc2nc3c4ccc(Br)cc4n(CCN(C)C)c3nc2cc1C | 1.82 µM | 5.19 µM | 0.532 µM | 1.9 µM | 2 µM | 6.24 µM | 1.02 µM | 2.54 µM | 1.51 µM | 4.22 µM | 1.45 µM | 5.68 µM | 1.24 µM | 11.8 µM | 3.39 µM | 1.97 µM | 7.23 µM | 11.1 µM | 1.55 µM | 2.46 µM |
